Data taken from publication PMC9609767, “Radiosynthesis and Preclinical Evaluation of an ^18F-Labeled Triazolopyridopyrazine-Based Inhibitor for Neuroimaging of the Phosphodiesterase 2A (PDE2A)” (Pharmaceuticals, 2022).
Where “and” joins values, the source holds several entries; their conditions need not be identical. Identical values can stand only once. Like-named read-outs stand apart in the source and are kept apart here.

What was measured:
rat PDE2A = target: T1, rat PDE2A (Rattus norvegicus, UniProt Q01062); assay: In vitro autoradiography with rat brain cryosections; format: binding; conditions: co-incubation with 1 µM inhibitor
T1 construct: Frozen sagittal 12 µm brain sections obtained from female SPRD and male Wistar-Han rats; from tissue; host or cells: rat brain cryosections (female SPRD and male Wistar-Han rats)
T1 sequence (Q01062 1-928): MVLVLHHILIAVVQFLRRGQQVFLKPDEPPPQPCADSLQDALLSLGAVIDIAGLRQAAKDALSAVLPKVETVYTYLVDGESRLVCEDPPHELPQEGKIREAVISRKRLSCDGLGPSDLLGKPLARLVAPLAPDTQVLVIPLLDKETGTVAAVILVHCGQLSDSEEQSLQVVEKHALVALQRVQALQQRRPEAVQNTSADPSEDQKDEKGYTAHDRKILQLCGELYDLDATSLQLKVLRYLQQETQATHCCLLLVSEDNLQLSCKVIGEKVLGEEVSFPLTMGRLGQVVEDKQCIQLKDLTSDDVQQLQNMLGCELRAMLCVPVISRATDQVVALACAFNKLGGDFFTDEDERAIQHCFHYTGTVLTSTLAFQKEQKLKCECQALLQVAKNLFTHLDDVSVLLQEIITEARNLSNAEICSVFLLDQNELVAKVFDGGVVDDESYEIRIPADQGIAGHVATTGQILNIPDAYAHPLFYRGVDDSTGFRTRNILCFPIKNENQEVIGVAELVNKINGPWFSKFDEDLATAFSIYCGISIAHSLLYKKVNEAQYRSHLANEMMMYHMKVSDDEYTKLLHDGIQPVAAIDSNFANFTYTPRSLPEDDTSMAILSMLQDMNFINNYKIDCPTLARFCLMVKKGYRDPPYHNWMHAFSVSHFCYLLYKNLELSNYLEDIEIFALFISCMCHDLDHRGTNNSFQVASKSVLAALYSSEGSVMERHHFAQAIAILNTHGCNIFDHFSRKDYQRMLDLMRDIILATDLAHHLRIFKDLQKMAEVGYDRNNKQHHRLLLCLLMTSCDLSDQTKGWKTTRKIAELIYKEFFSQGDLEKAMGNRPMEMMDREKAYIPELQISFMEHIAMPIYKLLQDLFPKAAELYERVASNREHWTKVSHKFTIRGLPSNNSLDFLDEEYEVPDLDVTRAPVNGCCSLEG
Experimental: Frozen sagittal 12 µm brain sections obtained from female SPRD and male Wistar-Han rats (10–12 weeks old) were thawed, dried in a stream of cold air, and pre-incubated for 15 min with incubation buffer (50 mM TRIS-HCl, pH 7.4; supplemented with 1 mM MgCl2, 1 mM CaCl2, 2 mM KCl, and 2 U/mL Adenosine deaminase) at ambient temperature. Afterwards, the buffer was decanted and the cryosections dried again in a stream of cold air before covering with the radioligand in incubation buffer (~0.1 MBq [^18F]11/mL; Am at the time of the incubation ~10 GBq/µmol) for incubation at ambient temperature for 90 min.
The incubation was terminated by pouring off the incubation solution and washing the slides twice with ice-cold buffer (50 mM TRIS-HCl, pH 7.4/4 °C) for 2 min and rinsing by dipping in ice-cold demineralised water. Immediately afterwards, the sections were dried in a stream of cold air and exposed along with appropriate radioactive standards (1 µL of serial dilutions of the radioligand in incubation buffer, pipetted on a microscopic glass slide and air dried) to an ^18F-sensitive image plate for 120 min. Finally, the imaging plate was scanned at the highest possible resolution (pixel size 12.6 µm × 12.6 µm) in a phosphor imager (HD-CR 35; Duerr NDT GmbH, Bietigheim Bissingen, Germany) and the digital image analysed with an image analysis program (Aida Image Analyzer v. 4.26; Elysia-raytest GmbH, Straubenhardt, Germany).
For the determination of the protein concentration, four dried 12 µm cryosections were scraped from the microscopic glass slides, transferred in an Eppendorf tube and solubilised with 200 µL of demineralised water. The protein concentration of this solution was determined by a commercial assay (Pierce™ BCA Protein Assay Kit, Thermo Fisher Scientific, Schwerte, Germany). The area of the cryosections was determined during the analysis of the digitized autoradiographic images, and the volume was calculated by multiplying the area with the thickness of the slices. Finally, the protein concentration of the tissue was calculated (37 mg protein/g wet weight).

human PDE2A = test system: human PDE2A; parameters: method as in PMID 15555642; conditions: cited from earlier work
bovine PDE2A = test system: bovine PDE2A; parameters: method as in PMID 15555642; conditions: cited from earlier work
PDE10A [1] = test system: PDE10A; parameters: method as in earlier work; conditions: read-out: IC50, PDE10A (PDE10A1); cited from earlier work
PDE10A [2] = assay: Inhibitory potency against PDE10A; format: biochemical; conditions: PDE2A vs. PDE10A
PDE2A [3] = test system: PDE2A; parameters: method as in earlier work; conditions: cited from earlier work
PDE2A [4] = conditions: cited from earlier work

| SMILES | blocking of [18F]11 binding in rat brain sections (rat PDE2A) | IC50 (human PDE2A) [nM] | IC50 (bovine PDE2A) [nM] | IC50 (PDE10A [1]) | selectivity vs. PDE10A (PDE10A [2]) [fold] | IC50 (PDE2A [3]) [nM] | IC50 (PDE2A [4]) [nM] |
| --- | --- | --- | --- | --- | --- | --- | --- |
| COc1ccc(Cc2nn3c([C@@H](CCCc4ccccc4)[C@@H](C)O)nc(C)c3c(=O)[nH]2)cc1OC [BAY60-7550] | completely blocked | 4.7 | 2 | – | – | – | – |
| CCCC(O)c1ccc(F)c(-c2nnc3c(C)nc4ccc(C5CC5)nc4n23)c1 (centres unmarked) [Compound 11, 1-[3-(2-Cyclopropyl-6-methylpyrido[3,2-e][1,2,4]triazolo[4,3-a]pyrazin-9-yl)-4-fluorophenyl]butan-1-ol] | – | – | – | ~2000 nM and 1910 nM | ~1000 | 1.99 | – |
| Cc1nc(-c2cnn(C)c2-c2ccc(C(F)(F)F)cn2)c2c(N3CCC3)ncnn12 [PF-05180999, reference compound] | completely blocked | – | – | – | – | – | 1.6 |
